Patent US20160145242A1, “PHENYLIMIDAZOLE DERIVATIVE, AND THERAPEUTIC MEDICINE OR PREVENTIVE MEDICINE FOR INFLAMMATORY DISEASE, ETC” (NIPPON SODA CO., LTD., priority 2013, published 2016)

What was measured:
[1] = system: rattlesnake-derived phospholipase A2-II; assay: Phospholipase A2-II activity inhibitory action; assay type: biochemical; conditions: 3 μM
Procedure: The inhibitory action of the compound according to the present invention with respect to the activity of the present enzyme was examined using rattlesnake-derived phospholipase A2-II.
The rattlesnake-derived phospholipase A2-II was reacted with 0.030 μCi of 1-palmitoyl-2-[1-^14C]oleoyl-L-3-phosphatidylcholine and the amount of ^14C oleate which was a reaction product was measured by a radiation measurement method. 3 μM of the compound according to the present invention dissolved in dimethyl sulfoxide was added to the reaction system and the inhibition rate of ^14C oleate generation (phospholipase A2-II activity inhibition rate) was measured.

[2] = molecular target: T1, rabbit reticulocyte-derived 15-lipoxygenase (Oryctolagus cuniculus, UniProt P12530); assay: 15-Lipoxygenase activity inhibitory action; assay type: biochemical
T1 construct: Rabbit reticulocyte-derived 15-lipoxygenase; from tissue; host or cells: rabbit reticulocytes
T1 sequence (P12530 1-663): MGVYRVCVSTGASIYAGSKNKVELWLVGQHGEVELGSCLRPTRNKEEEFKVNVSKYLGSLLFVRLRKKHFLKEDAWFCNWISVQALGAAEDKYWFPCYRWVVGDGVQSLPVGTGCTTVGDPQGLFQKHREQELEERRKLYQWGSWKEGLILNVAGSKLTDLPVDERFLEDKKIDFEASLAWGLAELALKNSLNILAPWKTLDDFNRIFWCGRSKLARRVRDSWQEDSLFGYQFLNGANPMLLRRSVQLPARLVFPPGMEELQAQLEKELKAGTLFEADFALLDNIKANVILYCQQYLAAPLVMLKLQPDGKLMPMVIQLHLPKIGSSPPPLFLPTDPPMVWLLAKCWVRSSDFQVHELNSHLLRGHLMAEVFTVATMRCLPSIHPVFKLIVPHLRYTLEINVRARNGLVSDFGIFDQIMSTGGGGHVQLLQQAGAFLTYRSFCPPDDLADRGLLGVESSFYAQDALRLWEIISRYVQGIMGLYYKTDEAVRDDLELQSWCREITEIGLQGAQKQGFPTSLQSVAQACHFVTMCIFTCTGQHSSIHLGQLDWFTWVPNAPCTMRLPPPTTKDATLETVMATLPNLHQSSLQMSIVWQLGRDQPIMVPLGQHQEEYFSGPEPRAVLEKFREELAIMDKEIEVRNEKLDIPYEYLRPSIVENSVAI
Procedure: The inhibitory action of the compound of the present invention with respect to the activity of the present enzyme was examined using rabbit reticulocyte-derived 15-lipoxygenase.
Rabbit reticulocyte-derived 15-lipoxygenase was reacted with 260 μM of linoleic acid and the amount of 13-hydroperoxide which was a reaction product was measured using an absorption spectrometer.

CYP2D6 = molecular target: T2, CYP2D6 (Homo sapiens, UniProt P10635); assay: Cytochrome P450 inhibitory action, CYP2D6 in human liver microsomes; assay type: in vitro ADME; conditions: substrate dextromethorphan
T2 construct: Using human liver microsomes pooled as an enzyme source; from tissue; host or cells: pooled human liver microsomes
Procedure: An inhibitory action of the compound of the present invention with respect to CYP2D6 (dextromethorphan was used as a substrate) and CYP3A4 (midazolam and testosterone were used as substrates) which are isozymes of cytochrome P450 (hereinafter, referred to as “CYP”) serving as a major drug-metabolizing enzyme was examined using human liver microsomes.
Using human liver microsomes pooled as an enzyme source, 1.3 mM NADP as a coenzyme, 3.3 mM D-glucose-6-phosphate, and 0.4 U/mL D-glucose-6-phosphate dehydrogenase, the corresponding substrate ([…] dextromethorphan for CYP2D6, 5 μM midazolam or 50 µM testosterone for CYP3A4) and the compound of the present invention were added such that the final concentration became 0.1, 1, 10 μM and then incubated at 37° C. for 10 minutes. The inhibition rate (%) of the compound of the present invention in each concentration was calculated by quantifying metabolites (CYP2D6; dextrorphan, CYP3A4; 1-hydroxymidazolam or 6β hydroxytestosterone) using HPLC-MS/MS and setting the value of the activity of an enzyme when drug was not incorporated therein as 100%. […]

[3] = molecular target: T3, human platelet-derived thromboxane synthase (Homo sapiens, UniProt P24557); assay: Thromboxane synthase activity inhibitory action; assay type: biochemical; conditions: read-out: thromboxane synthase activity inhibition rate
T3 construct: host or cells: human recombinant cells (so in the source); platelets
T3 sequence (P24557 1-533): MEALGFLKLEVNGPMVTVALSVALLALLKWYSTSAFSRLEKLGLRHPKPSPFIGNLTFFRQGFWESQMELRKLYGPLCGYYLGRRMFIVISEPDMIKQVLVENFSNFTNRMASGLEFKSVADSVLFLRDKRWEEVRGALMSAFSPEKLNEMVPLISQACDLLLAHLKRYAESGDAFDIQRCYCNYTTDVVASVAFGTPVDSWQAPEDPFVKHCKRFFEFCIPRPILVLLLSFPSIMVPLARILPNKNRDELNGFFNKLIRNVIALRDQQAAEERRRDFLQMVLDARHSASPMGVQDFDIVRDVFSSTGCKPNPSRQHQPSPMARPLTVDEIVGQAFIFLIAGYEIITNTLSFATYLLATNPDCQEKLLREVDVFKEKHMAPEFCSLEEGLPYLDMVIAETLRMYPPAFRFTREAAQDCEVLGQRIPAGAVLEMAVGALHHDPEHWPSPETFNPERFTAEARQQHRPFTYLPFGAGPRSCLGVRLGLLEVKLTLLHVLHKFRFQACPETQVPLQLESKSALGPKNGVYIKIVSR
Procedure: The inhibitory action of the compound according to the present invention with respect to the activity of the present enzyme was examined using human platelet-derived thromboxane synthase.
Thromboxane synthase of human recombinant cells was reacted with 2.10 μM of prostaglandin H2 and the amount of thromboxane B2 which was a reaction product was measured by an enzyme-linked immunosorbent assay. 3 μM of the compound according to the present invention dissolved in dimethyl sulfoxide was added to the reaction system and the inhibition rate of thromboxane B2 generation (thromboxane synthase activity inhibition rate) was measured.

T2 sequence (P10635 whole entry): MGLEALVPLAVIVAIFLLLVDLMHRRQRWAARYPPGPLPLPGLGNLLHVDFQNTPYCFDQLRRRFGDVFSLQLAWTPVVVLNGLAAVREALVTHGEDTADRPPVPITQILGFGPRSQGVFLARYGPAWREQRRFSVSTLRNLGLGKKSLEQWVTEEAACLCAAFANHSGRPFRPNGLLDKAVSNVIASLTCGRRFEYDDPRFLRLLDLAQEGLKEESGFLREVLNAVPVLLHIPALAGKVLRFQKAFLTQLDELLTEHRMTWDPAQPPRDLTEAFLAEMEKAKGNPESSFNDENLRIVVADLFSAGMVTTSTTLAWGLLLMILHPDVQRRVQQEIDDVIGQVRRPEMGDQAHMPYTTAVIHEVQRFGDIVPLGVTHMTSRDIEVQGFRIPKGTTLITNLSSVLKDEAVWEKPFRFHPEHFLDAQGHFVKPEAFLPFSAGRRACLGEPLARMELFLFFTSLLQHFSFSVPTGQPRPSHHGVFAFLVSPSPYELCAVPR

With CC(=O)N1CCN(c2ccc(N)c(-n3ccnc3)c2)CC1 [Compound 1-1, 4-acetyl-1-(4-amino-3-imidazole-1-yl-phenyl)piperazine] the “phospholipase A2-II activity inhibition rate” value [1] was 12%, the inhibition at 3 µM ([2]; 3 μM, substrate linoleic acid 260 μM, read-out: 15-lipoxygenase activity inhibition rate) was 49% and the IC50 ([2]; estimated from 49% inhibition at 3 μM, read-out: 50% inhibitory concentration with respect to 15-lipoxygenase activity) was ~3 µM. For the same compound, the inhibition at 10 min, 10 µM (CYP2D6; pooled human liver microsomes, probe dextromethorphan (printed 5 M), 10 μM, read-out: inhibition rate in the shown concentration) was 36%, the IC50 (CYP2D6) was > 10 µM and the inhibition at 3 µM [3] was 32%.
